Results reported in patent publication EP1200406B1, “CYCLIC AMIDES AND IMIDES HAVING SELECTIVE ANTAGONIST ACTIVITY AT ALPHA-1D ADRENERGIC RECEPTOR” (RECORDATI INDUSTRIA CHIMICA E FARMACEUTICA S.p.a., priority 1999, dated 2001).
Read-outs that look alike come from different tables or passages of the source.

Experiments:
[1] = biological target: T1, human recombinant α1b adrenoceptor (Homo sapiens, UniProt P35368); experiment: Radioligand binding ([3H]prazosin) on membranes of CHO cells expressing cloned α1b adrenoceptor; conditions: human cloned receptor, CHO cell membranes, 0.2 nM [3H]prazosin; read-out: Affinity (Ki) α1b
T1 construct: expressed in transfected cells; host or cells: CHO cells (membranes)
T1 sequence (P35368 1-520): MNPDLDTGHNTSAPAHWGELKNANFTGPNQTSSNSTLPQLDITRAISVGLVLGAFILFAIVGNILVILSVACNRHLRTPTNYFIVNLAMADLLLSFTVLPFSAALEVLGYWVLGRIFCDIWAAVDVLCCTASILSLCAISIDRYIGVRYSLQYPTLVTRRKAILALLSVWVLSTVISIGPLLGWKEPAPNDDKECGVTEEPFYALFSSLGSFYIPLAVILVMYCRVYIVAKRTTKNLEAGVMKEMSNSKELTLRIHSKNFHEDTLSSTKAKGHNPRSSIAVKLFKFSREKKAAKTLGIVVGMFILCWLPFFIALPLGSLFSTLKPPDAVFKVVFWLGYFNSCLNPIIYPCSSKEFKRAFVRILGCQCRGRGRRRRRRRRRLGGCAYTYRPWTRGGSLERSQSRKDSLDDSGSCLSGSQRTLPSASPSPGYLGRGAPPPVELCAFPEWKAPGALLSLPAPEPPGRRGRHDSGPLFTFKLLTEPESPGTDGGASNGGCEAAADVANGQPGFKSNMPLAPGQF
Experimental: (§1) The determination of affinity for cloned subtypes of human α1 adrenergic receptors was performed in membranes from CHO cells (chinese hamster ovary cells) transfected by electroporation with DNA expressing the genes encoding each α1-adrenoceptor subtype, namely α1a, α1b and α1d.. Cloning and stable expression of the human α1-adrenoceptor gene were performed as previously described (Testa et al., Pharmacol. Comm. 6, 79-86 (1995)). CHO cell membranes were incubated in […] Tris pH 7.4 with 0.2 nM [^3H]prazosin, in a final volume of 1.02 ml for 30 minutes at 25°C, in the absence or presence of competing drugs (1 pM-10 µM). Non-specific binding was determined in the presence of 10 µM phentolamine. Incubation was stopped by addition of ice-cold Tris buffer and rapid filtration through 0.2% polyethyleneimine pretreated Schleicher & Schuell GF52 filters. Genomic clone G-21 coding for the human 5-HT1A-serotoninergic receptor was stably transfected in a human cell line (HeLa) (Fargin et al., J. Biol. Chem. 284, 14848-14852 (1989)). The HeLa cells were grown as monolayers in Dulbecco's modified Eagle's medium (DMEM), supplemented with 10% foetal calf serum and gentamicin (100 µg/ml), 5% CO2, at 37°C. The cells were detached from the growth flask at 95% confluence by a cell scraper and were lysed in ice-cold 5 mM Tris and 5-mM EDTA buffer (pH 7.4). The homogenates were centrifuged at 40000 x g x 20 minutes and the membranes were re-suspended in a small volume of ice-cold 5 mM Tris and 5-mM EDTA buffer (pH 7.4) and immediately frozen and stored at -70°C until use. On the experiment day, the cell membranes were re-suspended in a buffer containing 50 mM Tris (pH 7.4), 2.5 mM MgCl2, 10 µM pargyline (Fargin et al., Nature 335, 358-360 (1988)). […] The incubation was stopped by addition of ice-cold Tris buffer and rapid filtration through 0.2%-polyethyleneimine-pretreated Schleicher & Schuell filters. The inhibition of specific binding of the radioligands by the drugs was analysed to estimate the IC50 value by using the non-linear curve-fitting programme Allfit (De Lean et al., Am. J. Physiol. 235, E97-E102 (1978)). The IC50 value was converted to an affinity constant (Ki) by the equation of Cheng & Prusoff (Biochem. Pharmacol. 22, 3099-3108 (1973)). Data were expressed as mean of Ki.

[2] = biological target: T2, human 5-HT1A-serotoninergic receptor (Homo sapiens, UniProt P08908); experiment: Radioligand binding ([3H]8-OH-DPAT) on membranes of HeLa cells expressing cloned 5-HT1A receptor; conditions: read-out: Affinity (Ki) 5-HT1A
T2 construct: expressed in transfected cells; host or cells: HeLa cells (membranes)
T2 sequence (P08908 1-422): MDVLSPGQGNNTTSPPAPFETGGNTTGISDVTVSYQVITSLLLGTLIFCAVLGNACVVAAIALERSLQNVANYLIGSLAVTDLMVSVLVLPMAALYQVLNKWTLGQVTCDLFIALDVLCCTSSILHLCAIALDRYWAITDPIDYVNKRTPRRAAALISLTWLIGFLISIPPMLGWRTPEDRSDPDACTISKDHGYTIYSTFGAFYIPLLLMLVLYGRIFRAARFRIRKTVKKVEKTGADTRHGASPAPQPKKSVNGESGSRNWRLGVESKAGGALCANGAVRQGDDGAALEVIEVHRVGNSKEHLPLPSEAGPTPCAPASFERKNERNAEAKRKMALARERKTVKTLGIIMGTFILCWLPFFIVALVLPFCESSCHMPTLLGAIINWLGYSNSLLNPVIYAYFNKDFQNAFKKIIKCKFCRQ
Experimental: as §1

[3] = human cloned receptor, HeLa cell membranes, 1.2 nM [3H]8-OH-DPAT

SMILES | Ki [1] | Ki [2, 3] | Ki [2]
O=C1CC2(CCCC2)CC(=O)N1CCN1CCN(c2cc(F)ccc2Cl)CC1 [Example 9, 8-{2-[4-(2-Chloro-5-fluorophenyl)-1-piperazinyl]-ethyl}-8-azaspiro[4.5]decane-7,9-dione] | 10.1 nM | 12.1 nM | –
CC(CN1CCN(c2cc(Cl)ccc2Cl)CC1)N1C(=O)CC2(CCCC2)CC1=O (stereo not drawn) [Example 16, 8-{2-[4-(2,5-Dichlorophenyl)-1-piperazinyl]-1-methylethyl}-8-azaspiro[4.5]decane-7,9-dione] | 13.1 nM | 207 nM | –
O=C1CC2(CCCC2)CC(=O)N1CCN1CCN(c2cc(I)ccc2Cl)CC1 [Example 10, 8-{2-[4-(2-Chloro-5-iodophenyl)-1-piperazinyl]-ethyl}-8-azaspiro[4.5]decane-7,9-dione] | 448 nM | 804 nM | –
O=C1CC2(C=CN1CCN1CCN(c3cc(Cl)ccc3Cl)CC1)CCCC2 [Example 20, 8-{2-[4-(2,5-Dichlorophenyl)-1-piperazinyl]-ethyl}-8-azaspiro[4.5]dec-9,10-en-7-one] | 15.8 nM | 91.9 nM | –
O=C1CC2(CCC2)CC(=O)N1CCN1CCN(c2cc(Cl)ccc2Cl)CC1 [Example 15, 7-{2-[4-(2,5-Dichlorophenyl)-1-piperazinyl]-ethyl}-7-azaspiro[3.5]nonane-6,8-dione] | 79.6 nM | – | > 1000 nM
N#Cc1ccc(Cl)cc1N1CCN(CCN2C(=O)CC3(CCCC3)CC2=O)CC1 [Example 8, 8-{2-[4-(5-Chloro-2-cyanophenyl)-1-piperazinyl]-ethyl}-8-azaspiro[4.5]decane-7,9-dione] | 17 nM | 29.6 nM | –
O=C1CC2(CCCC2)CC(=O)N1CCN1CCN(c2cc(Br)ccc2Br)CC1 [Example 7, 8-{2-[4-(2,5-Dibromophenyl)-1-piperazinyl]-ethyl}-8-azaspiro[4.5]decane-7,9-dione] | 47.5 nM | 62.2 nM | –
CN(CCN1C(=O)CC2(CCCC2)CC1=O)CCN(C)c1cc(Cl)ccc1Cl [Example 18, N-(2,5-Dichlorophenyl)-N'-{2-(7,9-dioxo-8-azaspiro[4.5]decane-8-yl)-ethyl}-N,N'-dimethyl-1,2-diaminoethane] | 915 nM | 433 nM | –
O=C1CC2(CCCC2)CCN1CCN1CCN(c2cc(F)c(F)cc2F)CC1 [Example 24, 8-{2-[4-(2,4,5-Trifluorophenyl)-1-piperazinyl]-ethyl}-8-azaspiro[4.5]decane-7-one] | 22.7 nM | – | 214 nM
O=C1CC2(CCCC2)CC(=O)N1CCN1CCC(c2cc(Cl)ccc2Cl)CC1 [Example 17, 8-{2-[4-(2,5-Dichlorophenyl)-1-piperidinyl]-ethyl}-8-azaspiro[4.5]decane-7,9-dione] | 37.6 nM | 248 nM | –
O=C1CC2(CCCCC2)CC(=O)N1CCN1CCN(c2cc(Cl)ccc2Cl)CC1 [Example 11, 3-{2-[4-(2,5-Dichlorophenyl)-1-piperazinyl]-ethyl}-3-azaspiro[5.5]undecane-2,4-dione] | 52.9 nM | 128 nM | –
O=C1CC2(CCCC2)CC(=O)N1CCN1CCN(c2cc(Cl)ccc2Cl)CC1 [Example 1, 8-{2-[4-(2,5-Dichlorophenyl)-1-piperazinyl]-ethyl}-8-azaspiro[4.5]decane-7,9-dione] | 9.9 nM | 36 nM | –
Cc1ccc(F)c(N2CCN(CCN3C(=O)CC4(CCCC4)CC3=O)CC2)c1 [Example 4, 8-{2-[4-(2-Fluoro-5-methylphenyl)-1-piperazinyl]-ethyl}-8-azaspiro[4.5]decane-7,9-dione] | 119 nM | 52.3 nM | –
O=C1CC2(CCCC2)C(=O)N1CCN1CCN(c2cc(Cl)ccc2Cl)CC1 [Example 14, 2-{2-[4-(2,5-Dichlorophenyl)-1-piperazinyl]-ethyl}-2-azaspiro[4.4]nonane-1,3-dione] | 83.6 nM | – | > 1000 nM
CCC1(C)CC(=O)N(CCN2CCN(c3cc(Cl)ccc3Cl)CC2)C(=O)C1 [Example 13, 1-{2-[4-(2,5-Dichlorophenyl)-1-piperazinyl]-ethyl}-4-ethyl-4-methylpiperidinyl-2,6-dione] | 43.4 nM | 104 nM | –
Cc1ccc(C)c(N2CCN(CCN3C(=O)CC4(CCCC4)CC3=O)CC2)c1 [Example 5, 8-{2-[4-(2,5-Dimethylphenyl)-1-piperazinyl]-ethyl}-8-azaspiro[4.5]decane-7,9-dione] | 168 nM | 275 nM | –
O=C1CC2(CCCC2)CC(=O)N1CCN1CCN(c2cc(C(F)(F)F)ccc2F)CC1 [Example 6, 8-{2-[4-(2-Fluoro-5-trifluoromethylphenyl)-1-piperazinyl]-ethyl}-8-azaspiro[4.5]decane-7,9-dione] | > 1000 nM | 160 nM | –
O=C1CCCC(=O)N1CCN1CCN(c2cc(Cl)ccc2Cl)CC1 [Example 2, 1-{2-[4-(2,5-Dichlorophenyl)-1-piperazinyl]-ethyl}-piperidinyl-2,6-dione] | 54.1 nM | 258 nM | –
